Structures are written as SMILES.

In assay [1] the test system is S. aureus NRS144pCN52RI-Venus. The assay is described as follows: Bacterial growth inhibition (OD600) in the fluorescent screening assay. The assay is classed as cell-based, Staphylococcus aureus. The conditions noted are these: compound at 100 mg/L^−1; OD600 after 2 h. On the procedure: The collection of the 100 compounds from the in-silico search was screened against S. aureus NRS144pCN52RI-Venus. The screening strategy was as follows. Bacteria grown to OD600 of 0.25 were exposed concurrently to CBAP (10 mg·L^−1) and the test compound (100 mg·L^−1). Fluorescence was recorded after two hours of incubation. OD600 values were also recorded to identify compounds with inherent antibacterial activity. Compound 1 (Chart 1) emerged—82% diminished fluorescence as an indication of the extent of BlaR inhibition—as a suitable template for structure elaboration. This effort led to the synthesis of several dozen benzimidazole and imidazole compounds. The progression of the iterative design is depicted in Chart 1 for four compounds, culminating in 4. […] The X-ray structures for the complexes of compounds 2 (non-covalent) and 4 (covalent) with the BlaR sensor domain are shown respectively in FIG. 2b (2.0 Å resolution) and FIG. 2c (1.97 Å resolution). Compound 4 makes a covalent bond with the catalytic Ser389 and creates a network of hydrogen bonds with the BlaR active site (FIG. 2c).
Fluorescent assay for screening of BlaR potential inhibitors. A 3-mL portion of lysogeny broth (LB) medium was inoculated with NRS144pCN52RI Venus from frozen stocks and grown overnight at 37° C. The overnight culture was then diluted 1:150 fold with fresh LB containing […] of erythromycin and incubated at 37° C. to an OD600 of 0.3, at which point fluorescence was induced by the addition of CBAP to a final concentration of 10 μg·mL^−1. The culture was aliquoted (99 L) into 96-well plate and 1 L of inhibitor solution (1 mg·mL^−1 in DMSO) was added to each well. Negative control (DMSO without CBAP) and positive control (CBAP without inhibitor) were included. The plate was incubated at 30° C. for 2 h with intermittent shaking. Fluorescence and OD600 measurements were taken by a Cytation-5 multimode microplate reader. Percent inhibition of BlaR and bacterial growth were calculated using absorbance unit (AU) and OD600 values of each sample entered into this formula: […]

A further assay relates to NRS21. Description: Time-kill assay. The assay is classed as cell-based, Staphylococcus aureus. Conditions: for antibacterial activity as single-drug treatment: FIG. 3, 24 h, OXA 32 mg·L^−1, 4 8 mg·L^−1. On the procedure:
Time-kill assay. MRSA strains (NRS21, NRS70, NRS382, NRS404, HFH 29568, and HFH 30495) were grown overnight on tryptic soy agar plate. Bacteria were diluted in Muller-Hinton broth containing 2% NaCl to […] CFU·mL^−1. […] For MEM and CPT, cation-adjusted Muller-Hinton broth without 2% NaCl was used. Aliquots were taken at 0, 3, 6, 9, 12, and 24 h and were diluted serially for bacterial counts. The assay was done in triplicate.

The test system of the next assay is MRSA FPR3757. The assay is described as follows: Neutropenic thigh infection model. The assay is classed as in vivo, mice. The conditions noted are these: MEM 50 mg·kg^−1 ip, 4 20 mg·kg^−1 sc, thighs at 24 h. As for the experimental part:
(§1) The neutropenic thigh infection model in mice is commonly used to test efficacy of antibacterial agents. It is a highly standardized and reproducible assay that evaluates attenuation of bacterial load (and not animal survival) as the endpoint. All current clinical antibiotics are evaluated in this model. The direct injection of bacteria into the thighs of mice mimics a human soft-tissue infection. Prior to infection, mice are made neutropenic by injection of cyclophosphamide to cause the temporary depletion of neutrophils, dampening the immune response and making mice more susceptible to infection. […] The potentiation of activity of β-lactam antibiotics by compound 4 observed in vitro, translates to in vivo activity.
(§2) Animals. Outbred 8-week-old female ICR mice for PK and neutropenic thigh infection studies were purchased from Envigo, Indianapolis, IN. The average weight of the mice for the PK study was 30 g (range 26.1 to 33.1 g); mice in the neutropenic thigh infection weights ranged from 24.2 to 37.7 g and were on average 29 g at the initiation of the study. Mice were housed in polycarbonate shoebox cages (for the PK study) or in disposable cages (for the infection studies) with ¼-inch corncob (The Andersons Inc., Maumee, OH) and Alpha-Dri (Shepherd Specialty Papers, Inc., Richland, MI) bedding with a 12-h light/dark cycle at 72° F. The animals were given food (Teklad 2918 irradiated extruded rodent diet) and water ad libitum. The food and water were autoclaved for the infection studies. All procedures were performed in accordance with and approved by the University of Notre Dame Institutional Animal Care and Use Committee.
(§3) Neutropenic thigh infection studies. Mice (n=5 per group, total of 155 mice) were made neutropenic by injection of cyclophosphamide (Sigma-Aldrich, St. Louis, MO) intraperitoneally at 200 mg·kg^−1 (100 μL of a 60 mg·mL^−1 solution) on days −4 and −1. MRSA NRS21 and FPR3757 were grown in Tryptic Soy Agar and diluted to a final concentration of 10^6 CFU·mL^−1 in Brain-heart Infusion. On day 0, 100 μL of bacterial inoculum was injected intramuscularly into each of the right and left thighs. […] MEM was given intraperitoneally at 50 or 100 mg·kg^−1. […] MEM was given intraperitoneally at 50 or 100 mg·kg^−1 at 1 h, 5 h, 9 h, 13 h, 17 h, and 21 h after infection. […] MEM was prepared in 10% DMSO/20% Tween80/70% saline (0.9% NaCl in sterilized water). A vehicle group was included. At 24 h after infection, the mice were euthanized. Both thighs were dissected aseptically, weighed, and homogenized with two volumes of 1×PBS in a Bullet blender (Next Advance, Inc., Averill Park, NY) at 4° C., followed by centrifugation. […] The number of colonies were counted. […]

A further assay has as its system MRSA NRS21. The assay is described as follows: Neutropenic thigh infection model. The class given is in vivo, mice. Conditions: single agent (4 20 mg·kg^−1 or OXA 40 mg·kg^−1 sc at 1, 9, 17 h), 24 h. On the procedure:
as §1, §2, §3

As for `N#Cc1ccc2nc(SCB(O)O)n(Cc3ccc(C(F)(F)F)cc3C(F)(F)F)c2c1` [Compound 4, (((1-(2,4-bis(trifluoro-methyl)benzyl)-6-cyano-1H-benzo[d]imidazol-2-yl)thio)methyl)boronic acid], the “% Inhibition of bacterial growth” value in assay [1] was 25%. In addition, in the assay with NRS21, the “antibacterial activity as single-drug treatment” value is on record as “did not show antibacterial activity”. The “log increase in bacterial growth at 24 h” value with NRS21 (compound 4 at 8 mg·L^−1) was determined as 4.1 log. The “log reduction compared to vehicle” value in the assay with MRSA FPR3757 turned out to be 0.06 log. The “decrease in bacterial counts compared to vehicle-treated mice” value in the assay with MRSA NRS21 was “did not show a statistically significant decrease in bacterial counts”.
As to `C[C@@H](O)[C@H]1C(=O)N2C(C(=O)O)=C(S[C@@H]3CN[C@H](C(=O)N(C)C)C3)[C@H](C)[C@H]12` [MEM, meropenem], in the assay on MRSA FPR3757, the “log reduction compared to vehicle” value was determined as 1.2 log.
Consider `Cc1onc(-c2ccccc2)c1C(=O)N[C@@H]1C(=O)N2[C@@H]1SC(C)(C)[C@@H]2C(=O)O` [OXA, oxacillin], for which the “antibacterial activity as single-drug treatment” value in the assay with NRS21 is recorded as “did not show antibacterial activity”. Moreover, in the assay on NRS21 (OXA at 32 mg·L^−1 by itself), the “log increase compared to initial bacterial count at 0 h” value is reported as 1.9 log. Also, the “decrease in bacterial counts compared to vehicle-treated mice” value in the assay on MRSA NRS21 is “did not show a statistically significant decrease in bacterial counts”.

The values are drawn from patent US20260284011A1, “COMPOUNDS FOR RESTORING SUSCEPTIBILITY TO BETA-LACTAM ANTIBIOTICS” (UNIVERSITY OF NOTRE DAME DU LAC, priority 2023, published 2026).
